We go through 1 molecule from patent US5096693A, “Stable stannous chloride composition for labeling with radioactive technetium” (Nihon Medi-Physics Co., Ltd., priority 1984, dated 1992).

For one series, the system named is rats. The experiment in a line: Acute toxicity with intravenous administration, rats. The note with it: 14 days. It is filed as in vivo, S.D. strain rats. As to the method:
(§1) In this Example, the acute toxicity with intravenous administration of the non-radioactive labeling composition to rats or mice was evaluated. Namely, sterilized, pyrogen-free and oxygen-free water (1.0 ml) was added to a vial containing "FDSn-RBC" to make a stannous chloride solution (20 μmol/ml, […]). The resultant solution was intravenously administered to male and female ICR strain mice and S.D. strain rats. After 14 days, the accumulative death percentage was determined, and the lethal dose 50 (LD50) was calculated by the Litchfield-Wilcoxon's method.
The dose of the non-radioactive labeling composition to human beings may be 9.48 μg/kg (with the assumption that a total amount of one vial of FDSn-COL is administered to a person of 60 kilograms in bodyweight) as stannous chloride at the maximum in case of using for preparation of ^99m Tc-labeled tin colloid, and 31.95 μg/kg (corresponding to 20 μg/kg of stannous ion) in case of using for labeling of red blood cells in a human body. When these doses are compared with the LD50 values of female rats which are considered to be the most sensitive among the tested animals, said dose is about 1/1790 that of the LD50 value in case of preparation of ^99m Tc-labeled tin colloid and about 1/530 that of the LD50 value in case of labeling of red blood cells in a human being.

The test system of a further series is mice. The series is described as follows: Acute toxicity with intravenous administration, mice. As to conditions: 14 days. It is filed as in vivo, ICR strain mice. The protocol:
as §1

The LD50 is the dose expected to kill half of the subjects tested. On to `[Cl][Sn][Cl]` [stannous chloride], for which the LD50 is 17 ± 2 mg/kg in the series on rats (female rats), 18 ± 3 mg/kg in the series with rats (male rats), 28 ± 3 mg/kg in the series on mice (female mice) and 33 ± 3 mg/kg in the series on mice (male mice).
